Source: patent US20240261417A1, “SOS1 DEGRADING AGENT AND PREPARATION METHOD THEREFOR AND APPLICATION THEREOF” (SHANGHAI LEADINGTAC PHARMACEUTICAL CO. LTD., priority 2021, published 2024)

Biological target: T1, SOS1 protein (Homo sapiens, UniProt Q07889)
T1 sequence (Q07889 1-1333): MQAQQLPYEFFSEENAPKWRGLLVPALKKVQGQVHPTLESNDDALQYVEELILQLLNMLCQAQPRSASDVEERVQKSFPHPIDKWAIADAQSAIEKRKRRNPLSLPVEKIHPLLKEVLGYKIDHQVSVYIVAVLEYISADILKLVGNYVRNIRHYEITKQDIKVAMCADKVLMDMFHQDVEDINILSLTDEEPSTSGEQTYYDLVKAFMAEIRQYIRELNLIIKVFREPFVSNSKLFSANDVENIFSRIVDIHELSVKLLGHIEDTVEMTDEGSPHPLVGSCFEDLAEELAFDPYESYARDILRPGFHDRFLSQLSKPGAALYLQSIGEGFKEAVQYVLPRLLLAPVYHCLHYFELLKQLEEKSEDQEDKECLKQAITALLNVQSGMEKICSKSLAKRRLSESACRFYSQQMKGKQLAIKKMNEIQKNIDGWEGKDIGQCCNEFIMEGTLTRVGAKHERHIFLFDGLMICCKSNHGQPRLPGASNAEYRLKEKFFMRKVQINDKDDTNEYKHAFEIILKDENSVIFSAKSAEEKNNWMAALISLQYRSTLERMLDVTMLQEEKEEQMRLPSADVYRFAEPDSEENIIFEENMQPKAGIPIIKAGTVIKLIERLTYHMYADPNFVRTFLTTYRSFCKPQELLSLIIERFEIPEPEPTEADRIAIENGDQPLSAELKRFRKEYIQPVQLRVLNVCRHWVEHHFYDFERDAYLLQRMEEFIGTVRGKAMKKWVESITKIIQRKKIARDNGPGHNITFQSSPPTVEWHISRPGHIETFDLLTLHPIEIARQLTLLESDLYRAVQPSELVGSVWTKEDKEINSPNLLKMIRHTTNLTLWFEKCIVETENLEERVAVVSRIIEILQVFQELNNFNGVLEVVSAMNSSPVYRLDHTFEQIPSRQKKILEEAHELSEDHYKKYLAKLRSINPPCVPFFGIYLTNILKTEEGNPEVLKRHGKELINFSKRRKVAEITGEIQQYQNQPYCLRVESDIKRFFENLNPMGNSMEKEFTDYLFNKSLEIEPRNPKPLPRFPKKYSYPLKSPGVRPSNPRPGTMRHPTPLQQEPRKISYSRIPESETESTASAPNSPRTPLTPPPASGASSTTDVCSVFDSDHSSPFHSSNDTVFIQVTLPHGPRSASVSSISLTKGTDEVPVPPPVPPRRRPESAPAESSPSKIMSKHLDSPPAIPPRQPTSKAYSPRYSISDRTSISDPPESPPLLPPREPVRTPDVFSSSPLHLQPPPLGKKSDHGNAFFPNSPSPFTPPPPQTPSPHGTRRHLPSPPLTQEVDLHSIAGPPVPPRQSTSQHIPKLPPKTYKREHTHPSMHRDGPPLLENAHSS
Experiment: SOS1 degradation assay (Western blot), NCI-H358 cells
Format: cell-based
Design: The degradation of SOS1 by the compounds was investigated on KRAS G12C mutant human non-small cell lung cancer cells NCI-H358; host or cells: NCI-H358 (human cancer cell lines)
Conditions: SOS1 degradation, NCI-H358 cells, 24 h, Western blot; for DC50: read-out: NCI-H358 (G12C) DC50; for Dmax: read-out: NCI-H358 (G12C) Dmax
Description: The specific procedures were as follows:
0.95 mL of cells were seeded into each well of a 24-well cell culture plate to achieve a cell density of 5×10^5 cells/well; the cell plate was incubated in an incubator at 37° C. with 5% CO2 overnight. Then 50 μL of the compound solution after dilution was added to each of the wells with the corresponding cells, so that the final concentration of the compound was in a range of 0.03-3000 nM. […] After dosing, the cell plate was incubated in an incubator at 37° C. with 5% CO2 for 24 h. […] After the plate was left to stand on ice for 30 min, the protein lysate in each well was transferred to a 1.5 mL centrifuge tube and centrifuged at 15000 g for 20 min at 4° C. The cell lysate supernatant after centrifugation was cryopreserved at −80° C. for testing and was used for determining the degradation level of the SOS1 protein by a WB method. The concentration of total protein in the cell lysate supernatant was determined using the BCA Protein Quantification Kit (Tiangen, PA115-02).
The concentration of total protein in the cell lysate was determined by BCA. The total protein was adjusted to 0.5 μg/μL with PBS and 5× SDS-PAGE protein loading buffer (Beyotime, P0015L), incubated in a water bath at 100° C. for 15 min, incubated in an ice bath on ice for 5 min, centrifuged at 14000 g for 1 min at 4° C., and mixed well as a loading sample for WB. Protein electrophoresis was performed on a precast gel (KeyGEN, KGMGO10W15) with a loading volume of 10 μL (total protein: 5 μg) using a Tris-MOPS-SDS running solution (Adamas, P1598253) at a constant voltage of 120 V for 55 min. After the electrophoresis, the protein on the gel strip was transferred to a PVDF membrane at a constant current of 250 mA for 65 min. After the membrane transfer, the membrane was incubated in 1× QuickBlock blocking buffer (Beyotime, P0235) for 30 min at room temperature. […] The protein map was subjected to gray value analysis by the chemiluminescence imaging system from Clinx. […] Then the degradation rate was calculated by comparing the gray correction value with the gray correction value of the control group. Then nonlinear curve fitting was performed by GraphPad Prism 8 in the logarithmic concentration-inhibition rate to obtain the DC50 and Dmax values of the compounds.

Row | DC50 | Dmax | SMILES | NCI-H358 (G12C) Dmax
1 | < 50 nM | 80 to 100% | COc1cc2nc(C)nc(N[C@H](C)c3cc(N)cc(C(F)(F)F)c3)c2cc1[C@H]1CC[C@H](C(=O)N2CCN(CC3CCC4(CC3)CCN(C(=O)c3ccc(F)c(N5CCC(=O)NC5=O)c3)CC4)CC2)CC1 [Example 24, 1-(5-(9-((4-((1R,4R)-4-(4-(((R)-1-(3-amino-5-(trifluoromethyl)phenyl)ethyl)amino)-7-methoxy-2-methylquinazolin-6-yl)cyclohexane-1-carbonyl)piperazin-1-yl)methyl)-3-azaspiro[5.5]undecane-3-carbonyl)-2-fluorophenyl)dihydropyrimidine-2,4(1H,3H)-dione] | –
2 | 100 to 500 nM | 50 to 80% | Cc1nc(N[C@H](C)c2cc(N)cc(C(F)(F)F)c2)c2cc([C@H]3CC[C@H](C(=O)N4CCN(CC5CCC6(CC5)CCN(C(=O)c5ccc(Cl)c(N7CCC(=O)NC7=O)c5)CC6)CC4)CC3)ncc2n1 [Example 78, 1-(5-(9-((4-((1R,4R)-4-(4-(((R)-1-(3-amino-5-(trifluoromethyl)phenyl)ethyl)amino)-2-methylpyrido[3,4-d]pyrimidin-6-yl)cyclohexane-1-carbonyl)piperazin-1-yl)methyl)-3-azaspiro[5.5]undecane-3-carbonyl)-2-chlorophenyl)dihydropyrimidine-2,4(1H,3H)-dione] | –
3 | 1000 to 10000 nM | 30 to 50% | COc1cc2nc(C)nc(N[C@H](C)c3cc(N)cc(C(F)(F)F)c3)c2cc1[C@H]1CC[C@H](C(=O)N2CCC(CN3CCC4(CC3)CCN(C(=O)c3ccc(Cl)c(N5CCC(=O)NC5=O)c3)CC4)CC2)CC1 [Example 7, 1-(5-(9-((1-((1R,4R)-4-(4-(((R)-1-(3-amino-5-(trifluoromethyl)phenyl)ethyl)amino)-7-methoxy-2-methylquinazolin-6-yl)cyclohexane-1-carbonyl)piperidin-4-yl)methyl)-3,9-diazaspiro[5.5]undecane-3-carbonyl)-2-chlorophenyl)dihydropyrimidine-2,4(1H,3H)-dione] | –

The remaining lines, values behind:

Row | SMILES | DC50 | Dmax | NCI-H358 (G12C) Dmax
4 | CNCc1ccccc1-c1csc([C@@H](C)Nc2nc(C)nc3cc(OC)c([C@H]4CC[C@H](C(=O)N5CCN(CC6CCC7(CC6)CCN(C(=O)c6ccc(F)c(N8CCC(=O)NC8=O)c6)CC7)CC5)CC4)cc23)c1 [Example 74, 1-(2-fluoro-5-(9-((4-((1R,4R)-4-(7-methoxy-2-methyl-4-(((R)-1-(4-(2-((methylamino)methyl)phenyl)thien-2-yl)ethyl)amino)quinazolin-6-yl)cyclohexane-1-carbonyl)piperazin-1-yl)methyl)-3-azaspiro[5.5]undecane-3-carbonyl)phenyl)dihydropyrimidine-2,4(1H,3H)-dione] | < 50 nM | 80 to 100% | –
5 | COc1cc2nc(C)nc(N[C@H](C)c3cc(N)cc(C(F)(F)F)c3)c2cc1[C@H]1CC[C@H](C(=O)N2CCC(COCC3CCN(C(=O)c4ccc(Cl)c(N5CCC(=O)NC5=O)c4)CC3)CC2)CC1 [Example 76, 1-(5-(4-(((1-((1R,4R)-4-(4-(((R)-1-(3-amino-5-(trifluoromethyl)phenyl)ethyl)amino)-7-methoxy-2-methylquinazolin-6-yl)cyclohexane-1-carbonyl)piperidin-4-yl)methoxy-d2)methyl)piperidine-1-carbonyl)-2-chlorophenyl)dihydropyrimidine-2,4(1H,3H)-dione] | < 50 nM | – | –
6 | [2H]C1([2H])CC(OCC2CCN(C(=O)c3ccc(Cl)c(N4CCC(=O)NC4=O)c3)CC2)CC([2H])([2H])N1C(=O)[C@H]1CC[C@H](c2cc3c(N[C@H](C)c4cc(N)cc(C(F)(F)F)c4)nc(C)nc3cc2OC)CC1 [Example 40, 1-(5-(4-(((1-((1R,4R)-4-(4-(((R)-1-(3-amino-5-(trifluoromethyl)phenyl)ethyl)amino)-7-methoxy-2-methylquinazolin-6-yl)cyclohexane-1-carbonyl)piperidin-4-yl-2,2,6,6-d4)oxy)methyl)piperidine-1-carbonyl)-2-chlorophenyl)dihydropyrimidine-2,4(1H,3H)-dione] | 1000 to 10000 nM | < 30% | –
7 | [2H]C([2H])(OCC1CCN(C(=O)c2ccc(Cl)c(N3CCC(=O)NC3=O)c2)CC1)C1CCN(C(=O)[C@H]2CC[C@H](c3cc4c(N[C@H](C)c5cc(N)cc(C(F)(F)F)c5)nc(C)nc4cc3OC)CC2)CC1 [Example 76, 1-(5-(4-(((1-((1R,4R)-4-(4-(((R)-1-(3-amino-5-(trifluoromethyl)phenyl)ethyl)amino)-7-methoxy-2-methylquinazolin-6-yl)cyclohexane-1-carbonyl)piperidin-4-yl)methoxy-d2)methyl)piperidine-1-carbonyl)-2-chlorophenyl)dihydropyrimidine-2,4(1H,3H)-dione] | – | – | B (when 50≤Dmax (%)<80, the level was B)
8 | COc1cc2nc(C)nc(N[C@H](C)c3cc(-c4c(Cl)cccc4CN(C)C)cs3)c2cc1[C@H]1CC[C@H](C(=O)N2CCC(CCOCC3CCN(c4ccc5c(c4)C(=O)N(C4CCC(=O)NC4=O)C5=O)CC3)CC2)CC1 (stereo partly drawn) [Example 41] | 100 to 500 nM | 80 to 100% | –
9 | COc1cc2nc(C)nc(N[C@H](C)c3cc(N)cc(C(F)(F)F)c3)c2cc1[C@H]1CC[C@H](C(=O)N2CCN(CCC3CCN(C(=O)c4ccc(Cl)c(N5CCC(=O)NC5=O)c4)CC3)CC2)CC1 [Example 12, 1-(5-(4-(2-(4-((1R,4R)-4-(4-(((R)-1-(3-amino-5-(trifluoromethyl)phenyl)ethyl)amino)-7-methoxy-2-methylquinazolin-6-yl)cyclohexane-1-carbonyl)piperazin-1-yl)ethyl)piperidine-1-carbonyl)-2-chlorophenyl)dihydropyrimidine-2,4(1H,3H)-dione] | 1000 to 10000 nM | 30 to 50% | –
10 | COc1cc2nc(C)nc(N[C@H](C)c3cc(N)cc(C(F)(F)F)c3)c2cc1[C@H]1CC[C@H](C(=O)N2CCC(CCCC3CCN(C(=O)c4ccc(Cl)c(N5CCC(=O)NC5=O)c4)CC3)CC2)CC1 [Example 14, 1-(5-(4-(3-(1-((1R,4R)-4-(4-(((R)-1-(3-amino-5-(trifluoromethyl)phenyl)ethyl)amino)-7-methoxy-2-methylquinazolin-6-yl)cyclohexane-1-carbonyl)piperidin-4-yl)propyl)piperidine-1-carbonyl)-2-chlorophenyl)dihydropyrimidine-2,4(1H,3H)-dione] | < 50 nM | 50 to 80% | –
